Measurements from US9375000B2, “Pesticidal arylpyrrolidines” (Bayer Intellectual Property GmbH, priority 2011, dated 2016).

Experiments:
Assay type in all cases: in vivo
[1] = system: Tobacco Cutworm (Spodoptera litura) Larvae; assay: Tobacco cutworm (Spodoptera litura) larvae, sweet potato leaf dip test; conditions: active compound concentration 4 ppm; dead larvae after 7 days
Experimental: (§1) Unless not mentioned otherwise, the test solutions were prepared as follows:
(§2) Solvent: 3 parts by weight Dimethylformamide
(§3) Emulsifier: 1 part by weight Polyoxyethylene alkyl phenyl ether
(§4) In order to make an appropriate formulation of an active compound, 1 part by weight of the active compound is mixed with the above mentioned amount of solvent and emulsifier and the mixture is diluted with water to a prescribed concentration. Ammonium salt or ammonium salt and penetration enhancer in a dosage of 1000 ppm are added to the desired concentration if necessary.
Leaves of sweet potato were immersed in the test solution at the appropriate concentration, and the leaves were dried in air. The leaves were then placed in a petri dish having a diameter of 9 cm, and ten Spodoptera litura at third instar larvae were released therein. The petri dishes were placed in a temperature-controlled chamber at 25° C. After 2 days and 4 days more sweet potato leaves were added. After 7 days, the number of dead larvae was counted to calculate the insecticidal activity. An insecticidal activity of 100% means that all larvae were killed, whereas an insecticidal activity of 0% means that no larva was killed. In the current test, the results of two petri dishes for each treatment were averaged.

[2] = system: Cucurbit Leaf Beetle (Aulacophora femoralis); assay: Cucurbit leaf beetle (Aulacophora femoralis) cucumber leaf dip test; conditions: after 7 days
Outline: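 Cucumber leaves dipped in compound formulated with DMF and polyoxyethylene alkyl phenyl ether, diluted in water, with ammonium salt or ammonium salt plus penetration enhancer at 1000 ppm added if necessary; dried leaves placed on sterilized soil with five second-instar larvae. Kept at 25° C; larval mortality counted after 7 days.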

[3] = system: Two-Spotted Spider Mite (Tetranychus urticae); assay: Two-spotted spider mite (Tetranychus urticae) spray test on kidney bean; conditions: after 7 days
Outline: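 Kidney bean plants at the two-leaf stage carried 50-100 adult mites and were sprayed one day later with compound in DMF/polyoxyethylene alkyl phenyl ether diluted in water. Ammonium salt and penetration enhancer at 1000 ppm were added if needed. Acaricidal activity (% mites killed) was scored after 7 days in a greenhouse.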

[4] = system: Larvae of Spodoptera litura; assay: Larvae of Spodoptera litura, method using artificial feeds; conditions: artificial feed, after 7 days
Outline: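 Compound formulated in dimethylformamide with polyoxyethylene alkyl phenyl ether emulsifier, water-diluted and poured onto artificial diet. Five 3rd-instar Spodoptera litura larvae per cup, held at 25° C and 50-60% humidity. Mortality after 7 days expressed as pesticidal ratio.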

[5] = system: Thrips palmi; assay: Thrips palmi spray test (THRIPL); conditions: after 6 days
Experimental: as §1, §2, §3, §4
The compound solutions are sprayed to a cucumber seedling (Cucumis sativus). After drying, the treated plant is placed in a plastic stand. About 100 thrips-eggs (Thrips palmi) on a piece of filter paper are attached to the plant and covered with a cage to keep 100% humidity. The plant is kept in a room at 23° C. After 6 days activity in % is evaluated by feeding damage degree. An insecticidal activity of 100 means that there was no feeding damage, whereas an insecticidal activity of 0% means that there is no difference to the untreated control.

[6] = active compound concentration 20 ppm
[7] = active compound concentration 4 ppm
[8] = active compound concentration 100 ppm

Row | Compound | insecticidal activity [1] | insecticidal activity [2, 6] | acaricidal activity [3, 6] | insecticidal activity [2, 7] | insecticidal activity (pesticidal ratio) [4, 7] | insecticidal activity (pesticidal ratio) [4, 6] | insecticidal activity (by feeding damage degree) [5, 6] | acaricidal activity [3, 7] | acaricidal activity [3, 8] | insecticidal activity (by feeding damage degree) [5, 8]
1 | CCC(=O)NCc1ccc(N2CCC(c3cc(F)c(F)c(F)c3)(C(F)(F)F)C2O)nc1C(F)(F)F (mixture of isomers) [A3-189] | 80% | 100% | – | – | – | – | – | – | – | –
2 | O=C(NCc1ccc(N2CCC(c3cc(F)c(F)c(F)c3)(C(F)(F)F)C2O)nc1C(F)(F)F)C1CC1 (mixture of isomers) [A3-192] | 100% | 100% | – | – | – | – | – | – | – | –
3 | CC(=O)NCc1ccc(N2CCC(c3cc(Cl)cc(C(F)(F)F)c3)(C(F)(F)F)C2O)nc1C(F)(F)F (mixture of isomers) [A3-265] | – | 100% | 100% | 100% | 100% | 100% | 90% | – | – | –
4 | O=C(CC1CC1)NCc1ccc(N2CCC(c3cc(Cl)cc(C(F)(F)F)c3)(C(F)(F)F)C2O)nc1C(F)(F)F (mixture of isomers) [A3-270] | – | 100% | 100% | 100% | 100% | 100% | 90% | 100% | – | –
5 | CS(=O)(=O)CC(=O)NCc1ccc(N2CCC(c3cccc(C(F)(F)F)c3)(C(F)(F)F)C2O)nc1C(F)(F)F (racemic) [A3-231] | – | 100% | 100% | 100% | 80% | – | 90% | 100% | – | –
6 | CC(=O)NCc1ccc(N2CCC(c3cc(C(F)(F)F)cc(C(F)(F)F)c3)(C(F)(F)F)C2O)cc1Br (stereo not shown) [A1-216] | – | – | – | 100% | 100% | – | 90% | 90% | – | –
7 | CCC(=O)NCc1ccc(N2CCC(c3cc(C(F)(F)F)cc(C(F)(F)F)c3)(C(F)(F)F)C2O)cc1Br (stereo not shown) [A1-217] | – | – | – | 100% | 100% | – | 90% | 100% | – | –
8 | O=C(NCc1ccc(N2CCC(c3cc(C(F)(F)F)cc(C(F)(F)F)c3)(C(F)(F)F)C2O)cc1Br)C1CC1 (stereo not shown) [A1-220] | – | – | – | 100% | 100% | – | 90% | 100% | – | –
9 | CCC(=O)NCc1ccc(N2CCC(c3cc(Br)cc(Br)c3)(C(F)(F)F)C2O)cc1C(F)(F)F (stereo not shown) [A1-250] | – | 100% | 100% | 100% | 100% | 100% | 90% | 100% | – | –
10 | CCC(=O)NCc1ccc(N2CCC(c3cc(F)cc(C(F)(F)F)c3)(C(F)(F)F)C2O)cc1C(F)(F)F (stereo not shown) [A1-316] | – | 100% | 100% | 100% | 100% | 100% | 90% | 100% | – | –
11 | O=C(NCc1ccc(N2CCC(c3cc(F)cc(C(F)(F)F)c3)(C(F)(F)F)C2O)cc1C(F)(F)F)C1CC1 (stereo not shown) [A1-319] | – | 100% | 100% | 100% | 100% | 100% | 90% | 100% | – | –
12 | O=C(NCc1ccc(N2CCC(c3cc(Cl)c(F)c(Cl)c3F)(C(F)(F)F)C2O)cc1Br)C1CC1 (stereo not shown) [A1-433] | – | – | – | 100% | 100% | – | 90% | 100% | – | –
13 | O=C(CC1CC1)NCc1ccc(N2CCC(c3cc(Cl)cc(Cl)c3)(C(F)(F)F)C2O)nc1C(F)(F)F (stereo not shown) [A3-6] | – | 100% | 100% | 100% | 100% | 100% | 90% | 100% | – | –
14 | CS(=O)(=O)CC(=O)NCc1ccc(N2CCC(c3cc(Cl)cc(Cl)c3)(C(F)(F)F)C2O)nc1C(F)(F)F (stereo not shown) [A3-11] | – | 100% | 100% | 100% | 100% | 100% | 98% | 100% | – | –
15 | O=C(CC(F)(F)F)NCc1ccc(N2CCC(c3cc(Cl)c(Cl)c(Cl)c3)(C(F)(F)F)C2O)nc1C(F)(F)F (stereo not shown) [A3-18] | – | 100% | 100% | 100% | 100% | 100% | 98% | 100% | – | –
16 | CS(=O)(=O)CC(=O)NCc1ccc(N2CCC(c3cc(Cl)cc(C(F)(F)F)c3)(C(F)(F)F)C2O)nc1C(F)(F)F (stereo not shown) [A3-275] | – | 100% | 100% | 100% | 100% | 100% | 98% | 100% | – | –
17 | O=C(NCc1ccc(N2CCC(c3cc(Cl)cc(Cl)c3F)(C(F)(F)F)C2O)nc1C(F)(F)F)C1CC1 (stereo not shown) [A3-348] | – | – | – | 100% | 100% | – | 90% | 100% | – | –
18 | CCC(=O)NCc1cc(F)c(N2CCC(c3cc(C(F)(F)F)cc(C(F)(F)F)c3)(C(F)(F)F)C2O)nc1Cl (stereo not shown) [A3-378] | – | – | – | 100% | 100% | – | – | – | 98% | 90%
19 | CCC(=O)NCc1cnc(N2CCC(c3cc(Cl)cc(Cl)c3)(C(F)(F)F)C2O)nc1C(F)(F)F (stereo not shown) [A4-2] | 100% | – | – | – | – | – | – | – | – | –
20 | Cc1nc(N2CCC(c3cc(Cl)c(Cl)c(Cl)c3)(C(F)(F)F)C2O)ncc1CNC(=O)C1CC1 (stereo not shown) [A4-49] | – | 100% | – | – | 100% | 100% | 98% | 98% | – | –
21 | O=C(NCc1cnc(N2CCC(c3cc(Cl)c(Cl)c(Cl)c3)(C(F)(F)F)C2O)nc1C(F)F)C1CC1 (stereo not shown) [A4-219] | – | – | – | 100% | 100% | – | 90% | 100% | – | –
22 | O=C(CC(F)(F)F)NCc1cnc(N2CCC(c3cc(Cl)c(Cl)c(Cl)c3)(C(F)(F)F)C2O)nc1C(F)F (stereo not shown) [A4-221] | – | – | – | 100% | 100% | – | 90% | 100% | – | –
23 | CCC(=O)NCc1cnc(N2CCC(c3cc(C(F)(F)F)cc(C(F)(F)F)c3)(C(F)(F)F)C2O)cc1C(F)(F)F (stereo not shown) [A5-24] | – | 100% | 100% | 100% | 100% | 100% | 90% | – | – | –
24 | O=C(CC(F)(F)F)NCc1cnc(N2CCC(c3cc(C(F)(F)F)cc(C(F)(F)F)c3)(C(F)(F)F)C2O)cc1C(F)(F)F (stereo not shown) [A5-29] | – | 100% | 100% | 100% | 100% | 100% | 90% | – | – | –
25 | CS(=O)(=O)CC(=O)NCc1cnc(N2CCC(c3cc(C(F)(F)F)cc(C(F)(F)F)c3)(C(F)(F)F)C2O)cc1C(F)(F)F (stereo not shown) [A5-33] | – | 100% | 98% | 100% | 100% | 100% | 90% | – | – | –
26 | O=C(NCc1ccc(N2CC(c3cc(Cl)c(Cl)c(Cl)c3)(C(F)(F)F)CC2O)nc1C(F)(F)F)C1CC1 (stereo not shown) [A′3-16] | 100% | 100% | – | – | – | – | – | – | – | –
